For one series, the system named is RSV A2 strain. Nature of the series: Assessment of RSV induced CPE in HEp2 cells (RSV A2 strain). Format: cell-based. The note with it: human respiratory syncytial virus; for IC50: HEp-2, 120 h; for inhibition at 0.01 µg/mL: Inhibition (%) at 0.01 μg/mL. The protocol: (§1) Assessment of RSV Induced CPE in HEp2 Cells
(§2) HEp2 cells were seeded (10^3/well/50 μL) in 384-well plates (Catalogue number 353962, BD Falcon, Oxford, UK) in […] containing 2 mM L-glutamine and 1 mM sodium pyruvate one day before infection. RSV A2 strain (#0709161v, NCPV, Public Health England, Wiltshire) or RSV B Washington strain (VR-1580, ATCC, Manassas, Va. 20108) virus solutions were prepared in serum free-DMEM with 2 mM L-glutamine and 1 mM sodium pyruvate, and then added (50 μL/well) to achieve a final virus concentration of 1 MOI. Simultaneously test compounds (0.5 μL DMSO solution) were added to 100 μL of HEp2 cell culture with virus solution to provide a final DMSO solution of 0.5%. Plates were incubated (37° C./5% CO2) for 5 days for studies using RSV A2 strain or 6 days for those using RSV B strain, and then resazurin sodium salt (5 μL of 0.03% solution; Sigma-Aldrich, Dorset, UK) was added to each well and the plate incubated for a further 6 hr (37° C./5% CO2). The fluorescence of each well [545 nm (excitation)/590 nm (emission)] was determined using a multi-scanner (Clariostar: BMG, Buckinghamshire, UK). The percentage inhibition for each well was calculated and the IC50, IC75 and IC90 values were calculated from the concentration-response curve generated for each test compound.

The test system of another series is RSV B Washington strain. Nature of the series: Assessment of RSV induced CPE in HEp2 cells (RSV B Washington strain). The following applies: human respiratory syncytial virus; for IC50: HEp-2, 144 h. Format: cell-based. The protocol:
as §1, §2

Series [1] in a line: Cell viability: resazurin assay. The following applies: human, HEp2 cells. It counts as cell-based, human. The protocol:
Cell Viability: Resazurin Assay
HEp2 cells were seeded in 384-well plates (10^3/well/50 μL; BD Falcon Ref 353962) in FBS DMEM (5%, containing 2 mM L-glutamine and 1 mM sodium pyruvate) one day before experimentation. Serum-free DMEM (50 μL) was added to test wells while for control wells the media was removed and sterile water (100 μL) was added. Test compounds (0.5 μL DMSO solution) were added to give a final DMSO concentration of 0.5%. Hep2 cells were incubated with each test compound for 5 days (37° C./5% CO2 in 5% FBS) and then resazurin stock solution (5 μL; 0.03%) was added to each well and the plate incubated for a further 6 hr (37° C./5% CO2). The fluorescence of each well at 545 nm (excitation) and 590 nm (emission) was determined using a multi-scanner (Clariostar: BMG Labtech). The percentage loss of cell viability was calculated for each well relative to vehicle (0.5% DMSO) treatment.
Any apparent increase in cell viability associated with test compound treatment relative to vehicle is consequently tabulated as a negative percentage. Where appropriate, a CC50 value was calculated from the concentration-response curve generated from the concentration-response curve for each test compound.

The mark [2] stands for this setting: HEp2 cells, 1 MOI, 5 days, read-out: RSV A2 CPE IC50.
The mark [3] stands for this setting: HEp-2, HEp2 cells, Inhibition (%) at 0.1 μg/mL, read-out: RSV A2 CPE % Inhibition.
The mark [4] stands for this setting: HEp2 cells, 1 MOI, 6 days, read-out: RSV B CPE IC50.
The mark [5] stands for this setting: HEp-2, HEp2 cells, Inhibition (%) at 1 μg/mL, read-out: RSV B CPE % Inhibition.

Where two headings read alike, the source gives them in different places.

On to `CCc1cnc(N2CC3(CCOCC3)C2)c(C(=O)Nc2ccc(C(=O)N3CCc4cc(C(=O)Nc5c(C)cccc5F)sc4-c4ccccc43)cc2)c1` [Example 60, 6-(4-(5-ethyl-2-(7-oxa-2-azaspiro[3.5]nonan-2-yl)nicotinamido)benzoyl)-N-(2-fluoro-6-methylphenyl)-5,6-dihydro-4H-benzo[b]thieno[2,3-d]azepine-2-carboxamide], for which the IC50 in the series on RSV A2 strain (setting [2]) was 0.14 nM; with RSV B Washington strain (setting [4]), 9.5 nM. Moreover, the inhibition at 0.1 µg/mL in the series with RSV A2 strain (setting [3]) amounted to 92%. Moreover, the inhibition at 1 µg/mL in the series on RSV B Washington strain (setting [5]) was found to be 100%. The compound also gave a CC50 at 5 days in series [1] above 13700 nM.

As for `Cc1cnc(N2CC3(CCOCC3)C2)c(C(=O)Nc2ccc(C(=O)N3CCc4cc(C(=O)Nc5ccccc5)sc4-c4ccccc43)cc2)c1` [Example 32, 6-(4-(5-methyl-2-(7-oxa-2-azaspiro[3.5]nonan-2-yl)nicotinamido)benzoyl)-N-phenyl-5,6-dihydro-4H-benzo[b] thieno[2,3-d]azepine-2-carboxamide], the concentration for half-maximal inhibition (IC50) in the series on RSV A2 strain (setting [2]) is below 0.015 nM; with RSV B Washington strain (setting [4]), 38.2 nM. Moreover, the inhibition at 0.1 µg/mL in the series on RSV A2 strain (setting [3]) is 100%. Besides, in the series on RSV B Washington strain (setting [5]), the inhibition at 1 µg/mL amounted to 81%. The CC50 at 5 days in series [1] was above 14600 nM.

For `Cc1cnc(N2CC3(CCOCC3)C2)c(C(=O)Nc2ccc(C(=O)N3CCc4cc(C(=O)Nc5c(C)cccc5Cl)sc4-c4ccccc43)cc2)c1` [Example 56, N-(2-chloro-6-methylphenyl)-6-(4-(5-methyl-2-(7-oxa-2-azaspiro[3.5]nonan-2-yl)nicotinamido)benzoyl)-5,6-dihydro-4H-benzo[b]thieno[2,3-d]azepine-2-carboxamide], the values for the IC50 with RSV A2 strain (setting [2]) and in the series on RSV B Washington strain (setting [4]) were 0.14 nM and 4.1 nM, respectively. Moreover, the inhibition at 0.1 µg/mL with RSV A2 strain (setting [3]) is 94%. In addition, in the series on RSV B Washington strain (setting [5]), the inhibition at 1 µg/mL turned out to be 89%. Further, in series [1], the CC50 at 5 days is above 13700 nM.

`Cc1ccc(NC(=O)c2cc3c(s2)-c2ccccc2N(C(=O)c2ccc(NC(=O)c4cccnc4N4CC5(CCOCC5)C4)cc2)CC3)c(F)c1` [Example 22, 6-(4-(2-(7-oxa-2-azaspiro[3.5]nonan-2-yl)nicotinamido)benzoyl)-N-(2-fluoro-4-methylphenyl)-5,6-dihydro-4H-benzo[b]thieno[2,3-d]azepine-2-carboxamide]: the IC50 in the series with RSV A2 strain (setting [2]) worked out at 0.96 nM; in the series on RSV B Washington strain (setting [4]), 37.3 nM. Also, the inhibition at 0.1 µg/mL in the series on RSV A2 strain (setting [3]) was 96%. Further, the inhibition at 1 µg/mL with RSV B Washington strain (setting [5]) was found to be 77%. Also, in series [1], the CC50 at 5 days is above 14200 nM.

With `Cc1cccc(C#N)c1NC(=O)c1cc2c(s1)-c1ccccc1N(C(=O)c1ccc(NC(=O)c3cc4c(nc3N3CC5(CCOCC5)C3)CCC4)cc1)CC2` [Example 74, 6-(4-(2-(7-oxa-2-azaspiro[3.5]nonan-2-yl)-6,7-dihydro-5H-cyclopenta[b]pyridine-3-carboxamido)benzoyl)-N-(2-cyano-6-methylphenyl)-5,6-dihydro-4H-benzo[b]thieno[2,3-d]azepine-2-carboxamide], the IC50 in the series with RSV A2 strain (setting [2]) is 0.88 nM; with RSV B Washington strain (setting [4]), 3.8 nM. Moreover, the inhibition at 0.01 µg/mL in the series with RSV A2 strain (HEp-2, HEp2 cells) came out at 100%. Also, the inhibition at 1 µg/mL in the series on RSV B Washington strain (setting [5]) turned out to be 77%. The CC50 at 5 days in series [1] was above 13400 nM.

Take `Cc1cnc(N2CCC3(CC2)COC3)c(C(=O)Nc2ccc(C(=O)N3CCc4cc(C(=O)Nc5c(F)cccc5Cl)sc4-c4ccccc43)cc2)c1` [Example 93, N-(2-chloro-6-fluorophenyl)-6-(4-(5-methyl-2-(2-oxa-7-azaspiro[3.5]nonan-7-yl)nicotinamido)benzoyl)-5,6-dihydro-4H-benzo[b]thieno[2,3-d]azepine-2-carboxamide]: the figures for the IC50 in the series on RSV A2 strain (setting [2]) and in the series on RSV B Washington strain (setting [4]) were 0.56 nM and 59.3 nM, respectively. In the series with RSV A2 strain (HEp-2, HEp2 cells), this compound displayed an inhibition at 0.01 µg/mL of 98%. In addition, the inhibition at 1 µg/mL in the series on RSV B Washington strain (setting [5]) was 100%. Also, in series [1], the CC50 at 5 days was above 13600 nM.

Take `O=C(Nc1ccccc1)c1cc2c(s1)-c1ccccc1N(C(=O)c1ccc(NC(=O)c3cccnc3N3CC4(CCOCC4)C3)cc1)CC2` [Example 1, 6-(4-(2-(7-oxa-2-azaspiro[3.5]nonan-2-yl)nicotinamido)benzoyl)-N-phenyl-5,6-dihydro-4H-benzo[b]thieno[2,3-d]azepine-2-carboxamide]: the values for the IC50 in the series on RSV A2 strain (read-out: RSV A2 CPE IC50 (nM)) and with RSV B Washington strain (read-out: RSV B CPE IC50 (nM)) were 0.5 nM and 166 nM, respectively. In addition, the inhibition at 0.1 µg/mL with RSV A2 strain (HEp-2, read-out: RSV A2 CPE % Inhibition) was found to be 98%. The inhibition at 1 µg/mL in the series with RSV B Washington strain (HEp-2, read-out: RSV B CPE % Inhibition) was determined as 77%. Further, the CC50 at 5 days in series [1] was above 14900 nM.

As for `Cc1cnc(N2CC3(CCOCC3)C2)c(C(=O)Nc2ccc(C(=O)N3CCc4cc(C(=O)Nc5c(Cl)cccc5Cl)sc4-c4ccccc43)cc2)c1` [Example 57, N-(2,6-dichlorophenyl)-6-(4-(5-methyl-2-(7-oxa-2-aza-spiro[3.5]nonan-2-yl)nicotinamido)benzoyl)-5,6-dihydro-4H-benzo[b]thieno[2,3-d]azepine-2-carboxamide], the IC50 in the series with RSV A2 strain (setting [2]) worked out at 0.13 nM; in the series with RSV B Washington strain (setting [4]), 1.4 nM. Besides, the inhibition at 0.1 µg/mL in the series on RSV A2 strain (setting [3]) turned out to be 91%. Besides, the inhibition at 1 µg/mL with RSV B Washington strain (setting [5]) was found to be 74%. This compound yielded a CC50 at 5 days in series [1] above 13300 nM.

With `Cc1cc(C(=O)Nc2ccc(C(=O)N3CCc4cc(C(=O)Nc5c(C)cccc5F)sc4-c4ccccc43)cc2)c(N2CC3(CCOCC3)C2)nc1C` [Example 44, 6-(4-(5,6-dimethyl-2-(7-oxa-2-azaspiro[3.5]nonan-2-yl)nicotinamido)benzoyl)-N-(2-fluoro-6-methylphenyl)-5,6-dihydro-4H-benzo[b]thieno[2,3-d]azepine-2-carboxamide], the half-maximal inhibitory concentration (IC50) worked out at 0.13 nM in the series with RSV A2 strain (setting [2]) and 16.2 nM in the series on RSV B Washington strain (setting [4]). For the same compound, the inhibition at 0.1 µg/mL in the series with RSV A2 strain (setting [3]) is 100%. The inhibition at 1 µg/mL in the series on RSV B Washington strain (setting [5]) worked out at 76%. The CC50 at 5 days in series [1] was above 13700 nM.

With `CCc1ccccc1NC(=O)c1cc2c(s1)-c1ccccc1N(C(=O)c1ccc(NC(=O)c3cccnc3N3CC4(CCOCC4)C3)cc1)CC2` [Example 17, 6-(4-(2-(7-oxa-2-azaspiro[3.5]nonan-2-yl)nicotinamido)benzoyl)-N-(2-ethylphenyl)-5,6-dihydro-4H-benzo[b]thieno [2,3-d]azepine-2-carboxamide], the IC50 in the series with RSV A2 strain (setting [2]) amounted to 0.66 nM; with RSV B Washington strain (setting [4]), 204 nM. Also, the inhibition at 0.1 µg/mL in the series on RSV A2 strain (setting [3]) stood at 100%. Besides, the inhibition at 1 µg/mL with RSV B Washington strain (setting [5]) was determined as 77%. The compound further displayed a CC50 at 5 days in series [1] above 14300 nM.

As to `Cc1cnc(N2CC3(CCOCC3)C2)c(C(=O)Nc2ccc(C(=O)N3CCc4cc(C(=O)Nc5c(C)cccc5C)sc4-c4ccccc43)cc2)c1` [Example 64, N-(2,6-dimethylphenyl)-6-(4-(5-methyl-2-(7-oxa-2-aza-spiro[3.5]nonan-2-yl)nicotinamido)benzoyl)-5,6-dihydro-4H-benzo[b]thieno[2,3-d]azepine-2-carboxamide], the IC50 worked out at 0.25 nM with RSV A2 strain (setting [2]) and 1.1 nM in the series on RSV B Washington strain (setting [4]). Further, in the series with RSV A2 strain (HEp-2, HEp2 cells), testing at 0.01 µg/mL gave an inhibition of 100%. Also, the inhibition at 1 µg/mL with RSV B Washington strain (setting [5]) was 100%. This compound also came in with a CC50 at 5 days in series [1] above 14000 nM.

`O=C(Nc1c(F)cccc1F)c1cc2c(s1)-c1ccccc1N(C(=O)c1ccc(NC(=O)c3cc4c(nc3N3CC5(CCOCC5)C3)CCOC4)cc1)CC2` [Example 82, N-(4-(2-((2,6-difluorophenyl)carbamoyl)-5,6-dihydro-4H-benzo[b]thieno[2,3-d]azepine-6-carbonyl)phenyl)-2-(7-oxa-2-azaspiro[3.5]nonan-2-yl)-7,8-dihydro-5H-pyrano[4,3-b] pyridine-3-carboxamide]: the IC50 with RSV A2 strain (setting [2]) came out at 0.78 nM; with RSV B Washington strain (setting [4]) it was 7.6 nM. Also, the inhibition at 0.01 µg/mL in the series with RSV A2 strain (HEp-2, HEp2 cells) is 97%. The compound further gave an inhibition at 0.1 µg/mL in the series on RSV B Washington strain (HEp-2, HEp2 cells, Inhibition (%) at 0.1 μg/mL) of 100%. Moreover, the CC50 at 5 days in series [1] was above 13100 nM.
